Measurements from patent publication US8471005B2 (Cephalon, Inc., priority 2008, dated 2013).
Like-named read-outs stand apart in the source and are kept apart here.

How the values were obtained:
JAK2 = target: T1, JAK2 (Homo sapiens, UniProt O60674); assay: Recombinant Human JAK2 Kinase Assay (TRF); assay type: biochemical; conditions: read-out: JAK2 Potency
T1 construct: host or cells: baculovirus expression system
How it was run: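 Kinase activity of baculovirus-expressed JAK2 is followed on a surface-immobilised biotinylated peptide, with the reaction run for 20 min at room temperature in buffer containing 0.2 μM ATP and manganese. Phosphorylation is read with Eu-N1 PY100 antibody.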

ALK = target: T2, ALK (Homo sapiens, UniProt Q9UM73); assay: ALK Kinase Assay (ELISA/TRF, PLC-γ substrate); assay type: biochemical; conditions: read-out: ALK Potency
T2 construct: host or cells: baculovirus expression system
T2 sequence (Q9UM73 19-1620): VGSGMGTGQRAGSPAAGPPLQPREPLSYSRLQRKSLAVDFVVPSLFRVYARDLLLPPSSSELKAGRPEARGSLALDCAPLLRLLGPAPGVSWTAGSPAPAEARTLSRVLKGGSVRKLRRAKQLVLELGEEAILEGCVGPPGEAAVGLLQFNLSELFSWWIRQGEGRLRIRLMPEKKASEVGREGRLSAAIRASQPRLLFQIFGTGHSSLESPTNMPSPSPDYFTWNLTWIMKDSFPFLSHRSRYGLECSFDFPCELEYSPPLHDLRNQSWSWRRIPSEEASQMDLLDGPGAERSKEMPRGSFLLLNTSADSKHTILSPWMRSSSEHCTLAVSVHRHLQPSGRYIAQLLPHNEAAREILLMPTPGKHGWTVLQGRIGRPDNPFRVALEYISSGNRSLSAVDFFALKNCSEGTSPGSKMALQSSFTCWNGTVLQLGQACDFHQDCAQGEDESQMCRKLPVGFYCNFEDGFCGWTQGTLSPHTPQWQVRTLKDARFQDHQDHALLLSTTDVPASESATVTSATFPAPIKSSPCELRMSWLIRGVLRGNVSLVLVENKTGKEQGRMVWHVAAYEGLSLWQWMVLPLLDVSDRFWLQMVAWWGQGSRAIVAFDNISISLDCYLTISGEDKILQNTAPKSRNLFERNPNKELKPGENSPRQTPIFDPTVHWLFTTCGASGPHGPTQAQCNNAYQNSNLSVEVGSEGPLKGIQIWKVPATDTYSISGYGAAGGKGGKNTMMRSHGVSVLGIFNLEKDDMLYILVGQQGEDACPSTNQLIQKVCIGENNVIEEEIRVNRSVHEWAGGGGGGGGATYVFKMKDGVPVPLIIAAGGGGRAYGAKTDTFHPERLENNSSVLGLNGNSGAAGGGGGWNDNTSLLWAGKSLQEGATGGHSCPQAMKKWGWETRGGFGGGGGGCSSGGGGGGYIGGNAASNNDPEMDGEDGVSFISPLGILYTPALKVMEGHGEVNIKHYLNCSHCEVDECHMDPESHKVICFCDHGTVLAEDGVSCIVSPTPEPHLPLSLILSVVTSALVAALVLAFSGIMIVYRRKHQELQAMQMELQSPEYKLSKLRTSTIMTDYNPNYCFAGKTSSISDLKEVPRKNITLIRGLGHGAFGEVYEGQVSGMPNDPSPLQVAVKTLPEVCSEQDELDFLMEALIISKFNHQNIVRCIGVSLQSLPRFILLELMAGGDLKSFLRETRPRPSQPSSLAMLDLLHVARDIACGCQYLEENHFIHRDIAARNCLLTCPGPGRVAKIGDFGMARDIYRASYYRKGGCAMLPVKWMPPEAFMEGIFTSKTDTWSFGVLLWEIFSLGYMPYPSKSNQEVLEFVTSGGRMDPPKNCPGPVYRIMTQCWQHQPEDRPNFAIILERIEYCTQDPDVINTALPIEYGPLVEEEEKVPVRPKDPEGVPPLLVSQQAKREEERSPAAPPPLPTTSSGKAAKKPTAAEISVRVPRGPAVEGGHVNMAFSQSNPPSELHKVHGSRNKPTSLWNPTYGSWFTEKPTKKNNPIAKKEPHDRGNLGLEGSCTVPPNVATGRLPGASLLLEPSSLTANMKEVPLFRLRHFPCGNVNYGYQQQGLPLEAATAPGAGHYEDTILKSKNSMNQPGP
How it was run: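 PLC-γ coat 10 μg/mL in TBS; ALK 30 ng/ml added to start; 37° C, 15 min; Eu-N1 PT66 antibody detection (TRF). IC50: % inhibition vs log10 [cpd], variable-slope sigmoidal fit.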

[1] = JAK2 kinase inhibition, 0.2 μM ATP
[2] = ALK kinase inhibition, 1 μM ATP

T1 sequence (O60674 whole entry): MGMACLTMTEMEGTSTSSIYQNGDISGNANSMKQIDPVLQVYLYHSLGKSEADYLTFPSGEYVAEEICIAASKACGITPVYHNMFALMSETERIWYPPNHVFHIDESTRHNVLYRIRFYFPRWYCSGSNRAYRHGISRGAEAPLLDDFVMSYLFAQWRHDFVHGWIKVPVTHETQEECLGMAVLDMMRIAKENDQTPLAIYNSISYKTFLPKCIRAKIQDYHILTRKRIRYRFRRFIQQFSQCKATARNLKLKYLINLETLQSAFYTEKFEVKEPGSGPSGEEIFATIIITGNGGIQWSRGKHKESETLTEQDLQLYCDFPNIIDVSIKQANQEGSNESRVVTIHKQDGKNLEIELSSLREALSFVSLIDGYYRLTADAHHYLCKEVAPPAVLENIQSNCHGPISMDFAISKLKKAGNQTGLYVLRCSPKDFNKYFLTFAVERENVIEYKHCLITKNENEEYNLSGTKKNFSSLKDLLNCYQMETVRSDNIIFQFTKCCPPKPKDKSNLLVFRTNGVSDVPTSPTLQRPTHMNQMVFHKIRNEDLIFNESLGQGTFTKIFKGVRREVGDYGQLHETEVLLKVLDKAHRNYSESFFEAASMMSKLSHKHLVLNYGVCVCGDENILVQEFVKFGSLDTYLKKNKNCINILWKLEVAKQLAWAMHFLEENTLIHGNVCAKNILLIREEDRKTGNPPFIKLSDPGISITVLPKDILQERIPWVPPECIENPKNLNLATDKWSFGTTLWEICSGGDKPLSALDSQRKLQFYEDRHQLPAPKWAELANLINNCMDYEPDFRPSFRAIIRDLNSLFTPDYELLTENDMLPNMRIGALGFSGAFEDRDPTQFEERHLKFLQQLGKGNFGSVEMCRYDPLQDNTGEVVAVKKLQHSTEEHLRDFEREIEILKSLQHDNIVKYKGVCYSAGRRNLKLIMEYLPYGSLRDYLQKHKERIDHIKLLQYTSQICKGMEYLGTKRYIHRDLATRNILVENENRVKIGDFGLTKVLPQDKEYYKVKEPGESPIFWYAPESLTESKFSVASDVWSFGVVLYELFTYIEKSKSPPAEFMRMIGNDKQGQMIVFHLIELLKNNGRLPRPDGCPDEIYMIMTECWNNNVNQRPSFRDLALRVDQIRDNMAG

| IC50 (JAK2; [1]) [nM] | IC50 (ALK; [2]) [nM] | IC50 (JAK2; JAK2 Kinase Inhibition) [nM] | IC50 (ALK; ALK Kinase Inhibition) [nM] | SMILES |
| --- | --- | --- | --- | --- |
| < 100 | 100 to 1000 |  |  | CN1CCc2ccc(Nc3ncc4ccc(-c5cccc(S(=O)(=O)NC(C)(C)C)c5)n4n3)cc2C1 [Example 931, N-tert-Butyl-3-[2-(2-methyl-1,2,3,4-tetrahydro-isoquinolin-7-ylamino)-pyrrolo[2,1-f][1,2,4]triazin-7-yl]-benzenesulfonamide] |
| 100 to 1000 | < 100 |  |  | COc1cc(N2CCC(N3CCCC3)CC2)ccc1Nc1ncc2ccc(-c3ccccc3OC)n2n1 [Example 481, [7-(2-Methoxy-phenyl)-pyrrolo[2,1-f][1,2,4]triazin-2-yl]-[2-methoxy-4-(4-pyrrolidin-1-yl-piperidin-1-yl)-phenyl]-amine] |
|  |  | < 100 | < 100 | COc1ccccc1-c1ccc2cnc(Nc3cccc(N4CCN(CC(C)(C)O)CC4)c3)nn12 [Example 218, 1-(4-{3-[7-(2-Methoxy-phenyl)-pyrrolo[2,1-f][1,2,4]triazin-2-ylamino]-phenyl}-piperazin-1-yl)-2-methyl-propan-2-ol] |
| 100 to 1000 | < 100 |  |  | COc1cc(C2CCN(C[C@H](O)C(F)(F)F)CC2)ccc1Nc1ncc2ccc(-c3ccccc3N(C)S(C)(=O)=O)n2n1 [Example 804, N-[2-(2-{2-Methoxy-4-[1-((S)-3,3,3-trifluoro-2-hydroxy-propyl)-piperidin-4-yl]-phenylamino}-pyrrolo[2,1-f][1,2,4]triazin-7-yl)-phenyl]-N-methyl-methanesulfonamide] |
|  |  | < 100 | 100 to 1000 | CC(C)(C)NS(=O)(=O)c1cccc(-c2ccc3cnc(Nc4ccc(OCCN5CCCC5)cc4)nn23)c1 [Example 118, N-tert-Butyl-3-{2-[4-(2-pyrrolidin-1-yl-ethoxy)-phenylamino]-pyrrolo[2,1-f][1,2,4]triazin-7-yl}-benzenesulfonamide] |
|  |  | 100 to 1000 | > 10000 | CN(C)S(=O)(=O)c1cccc(Nc2ncc3cc4ccccc4n3n2)c1 [Example 273, N,N-Dimethyl-3-([1,2,4]triazino[1,6-a]indol-2-ylamino)-benzenesulfonamide] |
|  |  | < 100 | > 10000 | Clc1cc(N2CCOCC2)ccc1Nc1ncc2c(Cl)cc(-c3ccccc3)n2n1 [Example 80, (2-Chloro-4-morpholin-4-yl-phenyl)-(5-chloro-7-phenyl-pyrrolo[2,1-f][1,2,4]triazin-2-yl)-amine] |
| 100 to 1000 | < 100 |  |  | COc1cc(C2(C#N)CCC(N3CCOCC3)CC2)ccc1Nc1ncc2ccc(-c3ccccc3OC)n2n1 (stereo not drawn) [Example 1246, trans-1-[3-methoxy-4-[[7-(2-methoxyphenyl)pyrrolo[2,1-f][1,2,4]triazin-2-yl]amino]phenyl]-4-morpholino-cyclohexanecarbonitrile] |
| 1000 to 10000 | < 100 |  |  | COc1cc(CN2CCN(C)CC2)ccc1Nc1ncc2ccc(-c3ccccc3N(C)S(C)(=O)=O)n2n1 [Example 1251, N-(2-{2-[2-Methoxy-4-(4-methyl-piperazin-1-ylmethyl)-phenylamino]-pyrrolo[2,1-f][1,2,4]triazin-7-yl}-phenyl)-N-methyl-methanesulfonamide] |
| 100 to 1000 | < 100 |  |  | COc1cc(C2CCN(C[C@H](O)CO)CC2)ccc1Nc1ncc2ccc(-c3ccccc3OC)n2n1 [Example 761, (S)-3-(4-{3-Methoxy-4-[7-(2-methoxy-phenyl)-pyrrolo[2,1-f][1,2,4]triazin-2-ylamino]-phenyl}-piperidin-1-yl)-propane-1,2-diol] |
| < 100 | 100 to 1000 |  |  | O=S(=O)(c1cccc(-c2ccc3cnc(Nc4ccc(C5CCN(CCO)CC5)cc4)nn23)c1)N1CCOCC1 [Example 677, 2-[4-(4-{7-[3-(Morpholine-4-sulfonyl)-phenyl]-pyrrolo[2,1-f][1,2,4]triazin-2-ylamino}-phenyl)-piperidin-1-yl]-ethanol] |
| < 100 | 1000 to 10000 |  |  | Cn1cc(-c2ccc3cnc(Nc4cccc(N5CCCC5=O)c4)nn23)cn1 [Example 967, 1-{3-[7-(1-Methyl-1H-pyrazol-4-yl)-\pyrrolo[2,1-f][1,2,4]triazin-2-ylamino]-phenyl}-pyrrolidin-2-one] |
|  |  | < 100 | 100 to 1000 | COc1cc(Nc2ncc3ccc(-c4ccccc4)n3n2)cc(OC)c1OC [Example 13, (7-Phenyl-pyrrolo[2,1-f][1,2,4]triazin-2-yl)-(3,4,5-trimethoxy-phenyl)amine] |
| 100 to 1000 | 100 to 1000 |  |  | COc1ccccc1-c1ccc2cnc(Nc3ccc4c(c3OC)CC(N3CCOCC3)CCC4)nn12 (racemic) [Example 768, (±)-1-Methoxy-8-morpholin-4-yl-6,7,8,9-tetrahydro-5H-enzocyclohepten-2-yl)-[7-(2-methoxy-phenyl)-pyrrolo[2,1-f][1,2,4]triazin-2-yl]-amine] |
| 100 to 1000 | 100 to 1000 |  |  | COc1cc(CN2CCN(C(=O)CNC(=O)OC(C)(C)C)CC2)ccc1Nc1ncc2ccc(-c3ccccc3OC)n2n1 [Example 1242, [2-(4-{3-Methoxy-4-[7-(2-methoxy-phenyl)-pyrrolo[2,1-f][1,2,4]triazin-2-ylamino]-benzyl}-piperazin-1-yl)-2-oxo-ethyl]-carbamic acid tert-butyl ester] |
| 100 to 1000 | < 100 |  |  | COc1cc(N2CCCN(C3CCN(C)CC3)CC2)ccc1Nc1ncc2ccc(-c3ccccc3OC)n2n1 [Example 789, {2-Methoxy-4-[4-(1-methyl-piperidin-4-yl)-[1,4]diazepan-1-yl]-phenyl}-[7-(2-methoxy-phenyl)-pyrrolo[2,1-f][1,2,4]triazin-2-yl]-amine] |
|  |  | < 100 | > 10000 | COCCOc1ncc2ccc(-c3cccc(Cl)c3)n2n1 [Example 190, 7-(3-Chloro-phenyl)-2-(2-methoxy-ethoxy)-pyrrolo[2,1-f][1,2,4]triazine] |
|  |  | < 100 | < 100 | COc1ccccc1-c1ccc2cnc(Nc3cccc(C4(O)CCNCC4)c3)nn12 [Example 1565, 4-{3-[7-(2-Methoxy-phenyl)-pyrrolo[2,1-f][1,2,4]triazin-2-ylamino]-phenyl}-piperidin-4-ol] |
|  |  | 100 to 1000 | < 100 | COc1cc(N2CCN(C)CC2)ccc1Nc1ncc2ccc(-c3ccccc3N(C)S(C)(=O)=O)n2n1 [Example 1457, N-(2-{2-[2-Methoxy-4-(4-methyl-piperazin-1-yl)-phenylamino]-pyrrolo[2,1-f][1,2,4]triazin-7-yl}-phenyl)-N-methyl-methanesulfonamide] |
|  |  | < 100 | 1000 to 10000 | O=S1(=O)CCCN1c1cccc(-c2ccc3cnc(Nc4ccc5nc[nH]c5c4)nn23)c1 [Example 1511, N-(1H-Benzimidazol-6-yl)-7-[3-(1,1-dioxido-1,2-thiazolidin-2-yl)phenyl]pyrrolo[2,14][1,2,4]triazin-2-amine] |
| < 100 | 100 to 1000 |  |  | CC(O)c1cccc(Nc2ncc3ccc(-c4cccc(S(=O)(=O)NC(C)(C)C)c4)n3n2)c1 (centres unmarked) [Example 569, N-tert-Butyl-3-{2-[3-(1-hydroxy-ethyl)-phenylamino]-pyrrolo[2,1-f][1,2,4]triazin-7-yl}-benzenesulfonamide] |
| 1000 to 10000 | < 100 |  |  | COc1cc(C2CCN(CC(N)=O)CC2)ccc1Nc1ncc2ccc(-c3cc(F)ccc3N(C)S(C)(=O)=O)n2n1 [Example 1282, 2-[4-(4-{7-[5-Fluoro-2-(methanesulfonyl-methyl-amino)-phenyl]-pyrrolo[2,1-f][1,2,4]triazin-2-ylamino}-3-methoxy-phenyl)-piperidin-1-yl]-acetamide] |
| < 100 | 1000 to 10000 |  |  | O=S(=O)(CC1CC1)c1cccc(-c2ccc3cnc(Nc4ccc5nc[nH]c5c4)nn23)c1 [Example 1319, (3H-Benzimidazol-5-yl)-[7-(3-cyclopropylmethanesulfonyl-phenyl)-pyrrolo[2,1-f][1,2,4]triazin-2-yl]-amine] |
|  |  | < 100 | 100 to 1000 | CC(C)(C)NS(=O)(=O)c1cccc(-c2ccc3cnc(Nc4cccc(-n5cnnc5)c4)nn23)c1 [Example 1391, N-tert-Butyl-3-[2-(3-[1,2,4]triazol-4-yl-phenylamino)-pyrrolo[2,1-f][1,2,4]triazin-7-yl]-benzenesulfonamide] |
| < 100 | 1000 to 10000 |  |  | CC(=O)N1CCCC(C)(C)c2ccc(Nc3ncc4ccc(-c5cccc(NS(C)(=O)=O)c5)n4n3)cc21 [Example 1365, N-{3-[2-(1-Acetyl-5,5-dimethyl-2,3,4,5-tetrahydro-1H-benzo[b]azepin-8-ylamino)-pyrrolo[2,1-f][1,2,4]triazin-7-yl]-phenyl}-methanesulfonamide] |
| 100 to 1000 | < 100 |  |  | COc1cc(CN2CCOCC2)ccc1Nc1ncc2ccc(-c3ccccc3OC)n2n1 [Example 1220, (2-Methoxy-4-morpholin-4-ylmethyl-phenyl)-[7-(2-methoxy-phenyl)-pyrrolo[2,1-f][1,2,4]triazin-2-yl]-amine] |
|  |  | < 100 | > 10000 | COCCOc1ncc2ccc(-c3cc(Cl)ccc3OC)n2n1 [Example 191, 7-(5-Chloro-2-methoxy-phenyl)-2-(2-methoxy-ethoxy)-pyrrolo[2,1-f][1,2,4]triazine] |
| < 100 | 1000 to 10000 |  |  | CN1CCN(c2ccc(Nc3ncc4ccc(-c5cccc(N6CCN(C(=O)OC(C)(C)C)CC6)c5)n4n3)cc2)CC1 [Example 1166, 4-(3-{2-[4-(4-Methyl-piperazin-1-yl)-phenylamino]-pyrrolo[2,1-f][1,2,4]triazin-7-yl}-phenyl)-piperazine-1-carboxylic acid tert-butyl ester] |
